Assay results as given in ChEMBL document CHEMBL5465560, “Selectivity Literature for EUbOPEN Chemogenomic Library” (2024).

Experiments:
[1] = biological target: T1, Serine/threonine-protein kinase Nek9 (Homo sapiens) (UniProt Q8TD19); test: Selectivity interaction (KinomeScan (DiscoverX)) EUB0000595a NEK9; conditions: at 10 µM
T1 sequence (whole entry): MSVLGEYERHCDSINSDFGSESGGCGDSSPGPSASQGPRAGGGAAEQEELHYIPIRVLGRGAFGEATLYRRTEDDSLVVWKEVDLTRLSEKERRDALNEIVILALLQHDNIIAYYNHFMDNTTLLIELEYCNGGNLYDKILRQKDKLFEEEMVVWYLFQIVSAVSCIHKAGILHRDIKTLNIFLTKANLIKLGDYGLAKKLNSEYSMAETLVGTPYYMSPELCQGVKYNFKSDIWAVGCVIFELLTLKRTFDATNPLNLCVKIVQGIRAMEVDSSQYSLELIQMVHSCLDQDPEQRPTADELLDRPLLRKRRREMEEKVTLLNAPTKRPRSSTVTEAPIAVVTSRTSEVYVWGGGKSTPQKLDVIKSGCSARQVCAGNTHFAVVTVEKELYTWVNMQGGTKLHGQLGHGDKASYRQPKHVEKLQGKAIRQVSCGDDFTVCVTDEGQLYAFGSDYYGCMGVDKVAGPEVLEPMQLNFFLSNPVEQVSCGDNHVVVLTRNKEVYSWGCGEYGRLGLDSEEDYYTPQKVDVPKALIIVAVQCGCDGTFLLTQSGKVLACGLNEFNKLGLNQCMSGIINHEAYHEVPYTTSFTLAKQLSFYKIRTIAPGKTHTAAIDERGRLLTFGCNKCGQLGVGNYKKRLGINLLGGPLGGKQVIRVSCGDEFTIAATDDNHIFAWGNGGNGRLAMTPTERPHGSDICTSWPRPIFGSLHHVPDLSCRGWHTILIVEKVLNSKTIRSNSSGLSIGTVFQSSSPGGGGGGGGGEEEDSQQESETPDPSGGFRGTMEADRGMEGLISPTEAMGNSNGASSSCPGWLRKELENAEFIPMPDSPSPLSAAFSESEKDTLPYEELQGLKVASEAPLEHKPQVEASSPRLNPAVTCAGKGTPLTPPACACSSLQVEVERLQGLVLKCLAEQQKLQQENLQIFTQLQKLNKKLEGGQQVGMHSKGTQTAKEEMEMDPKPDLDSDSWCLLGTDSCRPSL

[2] = biological target: T2, Dual serine/threonine and tyrosine protein kinase (Homo sapiens) (UniProt Q6XUX3); test: Selectivity interaction (KinomeScan (DiscoverX)) EUB0000655a DSTYK; conditions: at 10 µM
T2 sequence (whole entry): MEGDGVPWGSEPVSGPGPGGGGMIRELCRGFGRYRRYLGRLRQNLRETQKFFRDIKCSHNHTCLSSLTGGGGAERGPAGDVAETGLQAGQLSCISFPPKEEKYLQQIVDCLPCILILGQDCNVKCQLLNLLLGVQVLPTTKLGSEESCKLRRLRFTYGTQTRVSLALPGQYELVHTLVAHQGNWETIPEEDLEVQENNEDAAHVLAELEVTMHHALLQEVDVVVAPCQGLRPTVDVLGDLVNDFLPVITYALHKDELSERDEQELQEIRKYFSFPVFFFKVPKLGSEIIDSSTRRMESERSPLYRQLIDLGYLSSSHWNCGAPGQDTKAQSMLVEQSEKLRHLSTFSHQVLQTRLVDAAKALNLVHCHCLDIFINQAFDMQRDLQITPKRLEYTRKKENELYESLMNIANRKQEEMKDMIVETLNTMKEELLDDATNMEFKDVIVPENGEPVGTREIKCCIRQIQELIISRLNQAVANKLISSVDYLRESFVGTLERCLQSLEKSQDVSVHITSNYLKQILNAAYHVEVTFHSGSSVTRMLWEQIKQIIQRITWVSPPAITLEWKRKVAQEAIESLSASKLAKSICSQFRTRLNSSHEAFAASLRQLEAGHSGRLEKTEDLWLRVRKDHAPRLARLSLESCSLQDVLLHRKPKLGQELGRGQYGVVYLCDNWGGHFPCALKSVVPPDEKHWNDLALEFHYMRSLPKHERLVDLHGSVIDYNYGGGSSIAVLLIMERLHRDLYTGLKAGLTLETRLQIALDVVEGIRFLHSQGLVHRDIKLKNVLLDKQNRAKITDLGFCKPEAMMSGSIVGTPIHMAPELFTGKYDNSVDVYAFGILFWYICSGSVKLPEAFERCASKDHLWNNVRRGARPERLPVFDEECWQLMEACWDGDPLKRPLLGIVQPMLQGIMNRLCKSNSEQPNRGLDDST

[3] = system: Phosphatidylinositol 4,5-bisphosphate 3-kinase catalytic subunit alpha isoform (Homo sapiens), P42336 [C420R]; test: (§1) Selectivity interaction (Ambit KINOMEscan and KiNATiv profiling in Jurkat cells) EUB0000090b PIK3CA; format: cell-based; conditions: at 1 µM
[4] = system: Phosphatidylinositol 4,5-bisphosphate 3-kinase catalytic subunit alpha isoform (Homo sapiens), P42336 [M1043I]; test: as §1; format: cell-based; conditions: at 1 µM
[5] = system: Phosphatidylinositol 4,5-bisphosphate 3-kinase catalytic subunit alpha isoform (Homo sapiens), P42336 [E545K]; test: as §1; format: cell-based; conditions: at 1 µM
[6] = system: Phosphatidylinositol 4,5-bisphosphate 3-kinase catalytic subunit alpha isoform (Homo sapiens), P42336 [Q546K]; test: as §1; format: cell-based; conditions: at 1 µM
[7] = system: Phosphatidylinositol 4,5-bisphosphate 3-kinase catalytic subunit alpha isoform (Homo sapiens), P42336 [I800L]; test: as §1; format: cell-based; conditions: at 1 µM
[8] = system: Phosphatidylinositol 4,5-bisphosphate 3-kinase catalytic subunit alpha isoform (Homo sapiens), P42336 [E545A]; test: as §1; format: cell-based; conditions: at 1 µM
[9] = system: Phosphatidylinositol 4,5-bisphosphate 3-kinase catalytic subunit alpha isoform (Homo sapiens), P42336 [E542K]; test: as §1; format: cell-based; conditions: at 1 µM
[10] = system: Phosphatidylinositol 4,5-bisphosphate 3-kinase catalytic subunit alpha isoform (Homo sapiens), P42336 [H1047L]; test: as §1; format: cell-based; conditions: at 1 µM
[11] = biological target: Phosphatidylinositol 4,5-bisphosphate 3-kinase catalytic subunit alpha isoform (Homo sapiens) (UniProt P42336); test: as §1; format: cell-based; conditions: at 1 µM
[12] = system: Phosphatidylinositol 4,5-bisphosphate 3-kinase catalytic subunit alpha isoform (Homo sapiens), P42336 [H1047Y]; test: as §1; format: cell-based; conditions: at 1 µM
Sequence of Phosphatidylinositol 4,5-bisphosphate 3-kinase catalytic subunit alpha isoform (Homo sapiens), P42336 [H1047Y] (P42336 whole entry H1047Y, canonical isoform): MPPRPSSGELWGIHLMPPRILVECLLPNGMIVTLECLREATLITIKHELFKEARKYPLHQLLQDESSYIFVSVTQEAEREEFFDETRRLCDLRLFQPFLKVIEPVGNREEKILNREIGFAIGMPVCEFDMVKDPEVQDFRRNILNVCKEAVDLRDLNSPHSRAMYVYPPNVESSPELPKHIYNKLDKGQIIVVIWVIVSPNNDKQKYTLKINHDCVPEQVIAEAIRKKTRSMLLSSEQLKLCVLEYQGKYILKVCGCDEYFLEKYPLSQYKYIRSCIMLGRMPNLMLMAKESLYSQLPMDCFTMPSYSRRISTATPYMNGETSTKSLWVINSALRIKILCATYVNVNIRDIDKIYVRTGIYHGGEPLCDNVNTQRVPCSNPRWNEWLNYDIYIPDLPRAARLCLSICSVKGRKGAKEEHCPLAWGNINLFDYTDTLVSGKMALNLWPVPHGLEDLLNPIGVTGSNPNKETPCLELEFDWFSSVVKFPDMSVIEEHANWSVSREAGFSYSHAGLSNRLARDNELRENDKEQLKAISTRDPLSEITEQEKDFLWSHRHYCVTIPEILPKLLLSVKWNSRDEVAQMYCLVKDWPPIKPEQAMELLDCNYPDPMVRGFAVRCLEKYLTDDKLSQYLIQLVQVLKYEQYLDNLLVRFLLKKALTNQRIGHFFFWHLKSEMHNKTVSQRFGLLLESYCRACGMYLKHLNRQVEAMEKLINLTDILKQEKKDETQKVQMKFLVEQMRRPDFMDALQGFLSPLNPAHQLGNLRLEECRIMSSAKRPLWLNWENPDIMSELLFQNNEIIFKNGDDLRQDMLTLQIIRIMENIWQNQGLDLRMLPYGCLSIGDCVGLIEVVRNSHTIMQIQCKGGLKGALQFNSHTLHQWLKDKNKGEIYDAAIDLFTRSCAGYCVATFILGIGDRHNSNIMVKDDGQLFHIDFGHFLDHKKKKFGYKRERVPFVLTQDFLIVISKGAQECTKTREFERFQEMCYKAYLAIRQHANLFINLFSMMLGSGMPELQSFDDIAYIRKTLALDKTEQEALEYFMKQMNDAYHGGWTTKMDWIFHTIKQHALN

Sequence of Phosphatidylinositol 4,5-bisphosphate 3-kinase catalytic subunit alpha isoform (Homo sapiens), P42336 [E545K] (P42336 whole entry E545K, canonical isoform): as the sequence (P42336 whole entry H1047Y, canonical isoform) above, with E545K, Y1047H counted along it
Sequence of Phosphatidylinositol 4,5-bisphosphate 3-kinase catalytic subunit alpha isoform (Homo sapiens), P42336 [I800L] (P42336 whole entry I800L, canonical isoform): as the sequence (P42336 whole entry H1047Y, canonical isoform) above, with I800L, Y1047H counted along it
Sequence of Phosphatidylinositol 4,5-bisphosphate 3-kinase catalytic subunit alpha isoform (Homo sapiens), P42336 [M1043I] (P42336 whole entry M1043I, canonical isoform): as the sequence (P42336 whole entry H1047Y, canonical isoform) above, with M1043I, Y1047H counted along it
Sequence of Phosphatidylinositol 4,5-bisphosphate 3-kinase catalytic subunit alpha isoform (Homo sapiens), P42336 [Q546K] (P42336 whole entry Q546K, canonical isoform): as the sequence (P42336 whole entry H1047Y, canonical isoform) above, with Q546K, Y1047H counted along it
Sequence of Phosphatidylinositol 4,5-bisphosphate 3-kinase catalytic subunit alpha isoform (Homo sapiens), P42336 [E542K] (P42336 whole entry E542K, canonical isoform): as the sequence (P42336 whole entry H1047Y, canonical isoform) above, with E542K, Y1047H counted along it
Sequence of Phosphatidylinositol 4,5-bisphosphate 3-kinase catalytic subunit alpha isoform (Homo sapiens) (P42336 whole entry, canonical isoform): as the sequence (P42336 whole entry H1047Y, canonical isoform) above, with Y1047H counted along it
Sequence of Phosphatidylinositol 4,5-bisphosphate 3-kinase catalytic subunit alpha isoform (Homo sapiens), P42336 [C420R] (P42336 whole entry C420R, canonical isoform): as the sequence (P42336 whole entry H1047Y, canonical isoform) above, with C420R, Y1047H counted along it
Sequence of Phosphatidylinositol 4,5-bisphosphate 3-kinase catalytic subunit alpha isoform (Homo sapiens), P42336 [E545A] (P42336 whole entry E545A, canonical isoform): as the sequence (P42336 whole entry H1047Y, canonical isoform) above, with E545A, Y1047H counted along it
Sequence of Phosphatidylinositol 4,5-bisphosphate 3-kinase catalytic subunit alpha isoform (Homo sapiens), P42336 [H1047L] (P42336 whole entry H1047L, canonical isoform): as the sequence (P42336 whole entry H1047Y, canonical isoform) above, with Y1047L counted along it

SMILES: COCC(=O)NC/C=C/c1ccc2ncnc(Nc3ccc(Oc4ccc(C)nc4)c(C)c3)c2c1 [CP-724714]
- % of control [1]: 82%

SMILES: CN(C)CCOc1ccc(-c2nc(-c3ccncc3)c(-c3ccc4c(c3)CC/C4=N\O)[nH]2)cc1
- % of control [2]: 83%

SMILES: CN(C)C/C=C/C(=O)Nc1ccc(C(=O)N2CCCC(Nc3ncc(Cl)c(-c4c[nH]c5ccccc45)n3)C2)cc1 (configuration not stated)
- % of control [3]: 87%
- % of control [4]: 100%
- % of control [5]: 99%
- % of control [6]: 98%
- % of control [7]: 89%
- % of control [8]: 83%
- % of control [9]: 93%
- % of control [10]: 100%
- % of control [11]: 92%
- % of control [12]: 95%
